This passage reports IC50 results from patent US10138222B2, “Substituted benzamides as RIPK2 inhibitors” (Boehringer Ingelheim International GmbH, priority 2016, dated 2018).

The assay has as its target RIPK2 (Homo sapiens (Human), UniProt O43353). Briefly: RIPK2 inhibition, ADP-Glo Kinase Assay. Format: biochemical. Particulars: 8His-RIPK2 FL enzyme 8 nM, ATP 5 μM, 15 minutes pre-incubation, 60 minutes at 37° C., luminescence. As to the method: RIPK2 inhibition for compounds in Table 1 are shown in Table 3 and measured using the following method:
Materials: White, 384-well optiplates (cat.no. 6007290) were purchased from PerkinElmer. The V9103X ADP-Glo Kinase Assay Custom (including ultra-pure ATP) was purchased from Promega. 8His-RIPK2 FL was prepared in-house. All other materials were of highest grade commercially available.
Method: In a 384-well plate, test compound diluted in assay buffer (1% DMSO final) is mixed with 8His-RIPK2 FL enzyme (final concentration of 8 nM). After 15 minutes of pre-incubation at RT, ATP dissolved in assay buffer is added (final concentration 5 μM). The mixture is incubated for 60 minutes at 37° C. in a humidified incubator. Then, ADP Glo Reagent is added, followed by a 40 minute incubation at rt. Finally, Kinase Detection Reagent is added and the entire mixture is incubated for 40 min at RT. The luminescence signal is measured with an Envision reader to determine the amount of ADP produced. Assay buffer: 25 mM HEPES (4-(2-hydroxyethyl)-1-piperazinethanesulfonic acid), 0.1% BSA (bovine serum albumin), 10 mM MgCl2, 5 mM MnCl2, 50 mM KCl, 0.01% CHAPS (3-[(3-cholamidopropyl)dimethylammonio]-1-propanesulfonate), 10 μM Na3VO4, 1 mM DTT (dithiothreitol), pH 7.5 All plates contain wells with vehicle controls instead of compound (1% DMSO) as reference for the high signal (100% CTL (100% of control), high signal), and wells without enzyme as reference for low signal (0% CTL, low signal). The luminescent signal generated is proportional to the ADP produced and is correlated with enzyme activity. The analysis of the data is performed by the calculation of the percentage of ADP production in the presence of the test compound and RIPK2 as compared to the ADP production in the presence of RIPK2 plus 50 μM Gefitinib. (RLU (relative luminescence units) (sample)−RLU(low control))*100/(RLU(high value)−RLU(low control)) [RLU=relative luminescence units].

Sequence of RIPK2 (O43353 whole entry): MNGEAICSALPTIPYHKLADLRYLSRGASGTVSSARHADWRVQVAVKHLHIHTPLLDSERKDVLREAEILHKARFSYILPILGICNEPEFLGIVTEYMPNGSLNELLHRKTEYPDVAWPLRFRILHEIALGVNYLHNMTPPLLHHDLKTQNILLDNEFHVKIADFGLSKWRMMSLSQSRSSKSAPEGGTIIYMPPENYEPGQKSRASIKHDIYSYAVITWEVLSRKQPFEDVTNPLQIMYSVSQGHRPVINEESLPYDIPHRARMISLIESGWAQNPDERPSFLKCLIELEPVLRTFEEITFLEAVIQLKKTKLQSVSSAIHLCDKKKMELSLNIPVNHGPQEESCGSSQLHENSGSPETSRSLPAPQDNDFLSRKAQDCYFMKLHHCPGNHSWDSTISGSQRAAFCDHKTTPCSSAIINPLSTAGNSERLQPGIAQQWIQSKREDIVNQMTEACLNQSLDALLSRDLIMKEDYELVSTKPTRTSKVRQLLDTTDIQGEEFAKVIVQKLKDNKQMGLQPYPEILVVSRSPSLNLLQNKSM

The IC50 is the midpoint of a concentration-inhibition curve. A lower IC50 goes with greater potency in that assay. The compound `Cc1ccc(C(=O)NC2CC2)cc1-c1cnn(-c2cncc(NC3CCNCC3)c2)c1` [Example 92, N-cyclopropyl-4-methyl-3-(1-{5-[(piperidin-4-yl)amino]pyridin-3-yl}-1H-pyrazol-4-yl)benzamide] had a half-maximal inhibitory concentration (IC50) of 1.5 nM.

Regarding `Cc1ccc(C(=O)NC2CC2)cc1-c1cnn(-c2cncc(NC3CCN(C(C)CCO)CC3)c2)c1` (stereo not drawn) [Example 153, N-cyclopropyl-3-[1-(5-{[1-(4-hydroxybutan-2-yl)piperidin-4-yl]amino}pyridin-3-yl)-1H-pyrazol-4-yl]-4-methylbenzamide], the IC50 turned out to be 1.6 nM.

Turning to `Cc1ccc(C(=O)NC2CC2)cc1-c1cnn(-c2cncc(C3(C#N)CC3)c2)c1` [Example 131, 3-{1-[5-(1-cyanocyclopropyl)pyridin-3-yl]-1H-pyrazol-4-yl}-N-cyclo-propyl-4-methylbenzamide], 11 nM corresponded to half-maximal inhibition (IC50).

For `Cc1ccc(C(=O)NC2CC2)cc1-c1cnn(-c2cncc(C3(C(N)=O)CC3)c2)c1` [Example 101, 3-{1-[5-(1-carbamoylcyclopropyl)pyridin-3-yl]-1H-pyrazol-4-yl}-N-cyclopropyl-4-methylbenzamide], the 50% inhibitory concentration (IC50) was 370 nM.

Consider `Cc1cncc(-n2cc(-c3cc(C(=O)NC4CC4)ccc3C)cn2)c1` [Example 119, N-cyclopropyl-4-methyl-3-[1-(5-methylpyridin-3-yl)-1H-pyrazol-4-yl]benzamide], for which the concentration for half-maximal inhibition (IC50) was 24 nM.

Take `Cc1ccc(C(=O)NC2CC2)cc1-c1cnn(-c2cncc(NCCN3CCOC3=O)c2)c1` [Example 58, N-cyclopropyl-4-methyl-3-[1-(5-{[2-(2-oxo-1,3-oxazolidin-3-yl)ethyl]amino}pyridin-3-yl)-1H-pyrazol-4-yl]benzamide]: the half-inhibitory concentration (IC50) was 3.8 nM.

In the case of `CNc1cncc(-n2cc(-c3cc(C(=O)NC4CC4)ccc3C)cn2)c1` [Example 141, N-cyclopropyl-4-methyl-3-{1-[5-(methylamino)pyridin-3-yl]-1H-pyrazol-4-yl}benzamide], the half-maximal inhibitory concentration (IC50) stood at 2.6 nM.

`Cc1ccc(C(=O)NC2CC2)cc1-c1cnn(-c2cncc(C3(O)CCOCC3)c2)c1` [Example 137, N-cyclopropyl-3-{1-[5-(4-hydroxy-oxan-4-yl)pyridin-3-yl]-1H-pyrazol-4-yl}-4-methylbenzamide]: the IC50 was 120 nM.

`CCO[C@H]1COC[C@@H]1Nc1cncc(-n2cc(-c3cc(C(=O)NC4CC4)ccc3C)cn2)c1` [Example 56, N-cyclopropyl-3-[1-(5-{[(3S,4R)-4-ethoxyoxolan-3-yl]amino}pyridin-3-yl)-1H-pyrazol-4-yl]-4-methyl-benzamide] returned a 50% inhibitory concentration (IC50) of 10 nM.

Take `Cc1ccc(C(=O)NC2CC2)cc1-c1cnn(-c2cncc(NC(=O)NC3CCOC3)c2)c1` (stereo not drawn) [Example 142, N-cyclopropyl-4-methyl-3-[1-(5-{[(oxolan-3-yl)carbamoyl]amino}pyridin-3-yl)-1H-pyrazol-4-yl] benzamide]: half-maximal inhibition (IC50) was put at 3.2 nM.

In turn, `Cc1ccc(C(=O)NC2CC2)cc1-c1cnn(-c2cncc(OC3CC(CO)(CO)C3)c2)c1` [Example 152, 3-(1-{5-[3,3-bis(hydroxymethyl)cyclobutoxy]pyridin-3-yl}-1H-pyrazol-4-yl)-N-cyclopropyl-4-methylbenzamide] displayed a concentration for half-maximal inhibition (IC50) of 4.2 nM.

With `Cc1ccc(C(=O)NC2CC2)cc1-c1cnn(-c2cncc(S(C)(=O)=O)c2)c1` [Example 46, N-cyclopropyl-3-[1-(5-methanesulfonylpyridin-3-yl)-1H-pyrazol-4-yl]-4-methylbenzamide], the 50% inhibitory concentration (IC50) is 190 nM.

`COc1cncc(-n2cnc(-c3cc(C(=O)NC4CC4)c(F)cc3Cl)c2)c1` [Example 33, 4-chloro-N-cyclopropyl-2-fluoro-5-[1-(5-methoxypyridin-3-yl)-1H-imidazol-4-yl]benzamide] returned an IC50 of 7.4 nM.

`Cc1ccc(C(=O)NC2CC2)cc1-c1cnn(-c2cncc(C(F)(F)F)c2)c1` [Example 47, N-cyclopropyl-4-methyl-3-{1-[5-(trifluoromethyl)pyridin-3-yl]-1H-pyrazol-4-yl}benzamide] showed an IC50 of 57 nM.

For `CO[C@@H]1CN(C)CC[C@@H]1Nc1cncc(-n2cc(-c3cc(C(=O)NC4CC4)c(F)cc3Cl)cn2)c1` [Example 173, 4-Chloro-N-cyclopropyl-2-fluoro-5-{1-[5-((3R,4S)-3-methoxy-1-methyl-piperidin-4-ylamino)-pyridin-3-yl]-1H-pyrazol-4-yl}-benzamide], 1.8 nM corresponded to half-maximal inhibition (IC50).

As to `Cc1ccc(C(=O)NC2CC2)cc1-c1cnn(-c2cncc(N(C)C)n2)c1` [Example 118, N-cyclopropyl-3-{1-[6-(dimethylamino)pyrazin-2-yl]-1H-pyrazol-4-yl}-4-methylbenzamide], the midpoint of inhibition, the IC50, lay at 110 nM.

Turning to `Cc1ccc(C(=O)NC2CC2)cc1-c1cnn(-c2cncc(CC(=O)O)c2)c1` [Example 51, 2-(5-{4-[5-(cyclopropylcarbamoyl)-2-methylphenyl]-1H-pyrazol-1-yl}pyridin-3-yl)acetic acid], the IC50 stood at 240 nM.

`Cc1ccc(C(=O)NC2CC2)cc1-c1cnn(-c2cncc(NC(=O)NC(C)C)c2)c1` [Example 110, N-cyclopropyl-4-methyl-3-[1-(5-{[(propan-2-yl)carbamoyl]amino}pyridin-3-yl)-1H-pyrazol-4-yl] benzamide] yielded a concentration for half-maximal inhibition (IC50) of 3.4 nM.

In the case of `Cc1ccc(C(=O)NC2CC2)cc1-c1cnn(-c2cncc(OCc3ccccc3)c2)c1` [Example 80, 3-{1-[5-(benzyloxy)pyridin-3-yl]-1H-pyrazol-4-yl}-N-cyclopropyl-4-methylbenzamide], the IC50 stood at 26 nM.

`Cc1ccc(C(=O)NC2CC2)cc1-c1cnn(-c2cncc(NC3CCN(C)CC3)c2)c1` [Example 76, N-cyclopropyl-4-methyl-3-(1-{5-[(1-methylpiperidin-4-yl)amino]pyridin-3-yl}-1H-pyrazol-4-yl)benzamide]: the IC50 turned out to be 0.61 nM.

Take `CC(=O)NC(C)(C)c1cncc(-n2cc(-c3cc(C(=O)NC4CC4)ccc3C)cn2)c1` [Example 50, N-cyclopropyl-3-{1-[5-(2-acetamidopropan-2-yl)pyridin-3-yl]-1H-pyrazol-4-yl}-4-methylbenzamide]: it took 570 nM to reach half-maximal inhibition (IC50).

For the compound `Cc1ccc(C(=O)NC2CC2)cc1-c1cnn(-c2cncc(NCC3CC3)c2)c1` [Example 99, N-cyclopropyl-3-(1-{5-[(cyclopropylmethyl)amino]pyridin-3-yl}-1H-pyrazol-4-yl)-4-methyl-benzamide], the IC50 is 2.6 nM.

For `CCC(=O)Nc1cncc(-n2cc(-c3cc(C(=O)NC4CC4)ccc3C)cn2)c1` [Example 117, N-cyclopropyl-4-methyl-3-[1-(5-propanamidopyridin-3-yl)-1H-pyrazol-4-yl]benzamide], the IC50 was 3.4 nM.

`CN(C)c1cncc(-n2cc(-c3cc(C(=O)NC4CC4)c(F)cc3Cl)cn2)n1` [Example 123, 4-chloro-N-cyclopropyl-5-{1-[6-(dimethylamino)pyrazin-2-yl]-1H-pyrazol-4-yl}-2-fluorobenzamide] gave a 50% inhibitory concentration (IC50) of 43 nM.

`Cc1ccc(C(=O)NC2CC2)cc1-c1cnn(-c2cncc(C(=O)N(C)C)c2)c1` [Example 49, 5-{4-[5-(cyclopropylcarbamoyl)-2-methylphenyl]-1H-pyrazol-1-yl}-N,N-dimethylpyridine-3-carboxamide] had an IC50 of 390 nM.

On to `Cc1ccc(C(=O)NC2CC2)cc1-c1cnn(-c2cncc(NCC3CCCO3)c2)c1` (stereo not drawn) [Example 59, N-cyclopropyl-4-methyl-3-(1-{5-[(oxolan-2-ylmethyl)amino]pyridin-3-yl}-1H-pyrazol-4-yl)benzamide], for which the IC50 is 9.1 nM.

As to `Cc1ccc(C(=O)NC2CC2)cc1-c1cnn(-c2cncc(NC3CCN(C4COC4)CC3)c2)c1` [Example 94, N-cyclopropyl-4-methyl-3-[1-(5-{[1-(oxetan-3-yl)piperidin-4-yl]amino}pyridin-3-yl)-1H-pyrazol-4-yl] benzamide], half-maximal inhibition (IC50) required 0.81 nM.

In the case of `COC1CCC(N2CCC(Nc3cncc(-n4cc(-c5cc(C(=O)NC6CC6)ccc5C)cn4)c3)CC2)CC1` (stereo not drawn) [Example 160, N-cyclopropyl-3-[1-(5-{[1-(4-methoxycyclohexyl)piperidin-4-yl]amino}pyridin-3-yl)-1H-pyrazol-4-yl]-4-methylbenzamide], 1.1 nM corresponded to half-maximal inhibition (IC50).

`Cc1ccc(C(=O)NC2CC2)cc1-c1cnn(-c2cncc(NC(=O)C(C)(C)C)c2)c1` [Example 121, N-cyclopropyl-3-{1-[5-(2,2-dimethylpropanamido)pyridin-3-yl]-1H-pyrazol-4-yl}-4-methyl-benzamide] came in with an IC50 of 13 nM.

`Cc1ccc(C(=O)NC2CC2)cc1-c1cnn(-c2cncc(OC3CCCC3)c2)c1` [Example 148, 3-{1-[5-(cyclopentyloxy)pyridin-3-yl]-1H-pyrazol-4-yl}-N-cyclopropyl-4-methylbenzamide] came in with an IC50 of 12 nM.
